# Structures can show the parent of a compound that is named as a salt.
# Test system: MAP-induced hyperlocomotion in mice
# Assay: Inhibition of methamphetamine (MAP)-induced hyperlocomotion
# Assay type: in vivo
# Conditions: male ICR mice; compound 10 mg/kg p.o. 60 min before MAP 2 mg/kg s.c.; counts 0-120 min after MAP; Welch's t-test; FIG. 1
# Method: Male ICR mice were supplied by CLEA Japan, Inc (Japan). After arrival to the vivarium, animals were allowed a minimum of 1 week for acclimation. They were housed under a 12:12-h light/dark cycle in a temperature- and humidity-controlled laboratory and allowed food and water ad libitum.
# A test compound was suspended in 0.5% methylcellulose in distilled water and orally administered (p.o.). Methamphetamine (Dainippon Sumitomo Pharma Co., Ltd.) was dissolved in saline and subcutaneously administered (s.c.). All drugs were dosed in a volume of 10 mL/kg body weight for mice.
# The widely used animal models of psychosis have been the measurement of the extent of hyperlocomotion induced by psychostimulants (e.g., amphetamine, cocaine, methamphetamine, MK-801 and phencyclidine) in rodents (Psychopharmacology 1999, vol. 145: 237-250). 2 compounds (A and B) were tested for its ability to antagonize MAP-induced hyperlocomotion in mice. Male ICR mice were habituated in the locomotor chambers with infrared sensors (BrainScienceIdea Co., Ltd. Japan) to the experiment. […] Locomotion activities were measured, and accumulated counts (120 min after administration of MAP) were calculated in each treatment group. All data were represented as means plus the standard errors of the means (n=3-8) and analyzed using Welch's t-test with significance set at ^$P<0.05, ^$$P<0.01 and ^$$$P<0.001. […]
row,SMILES,inhibition of MAP-induced hyperlocomotion (accumulated locomotion counts)
1,"CS(=O)(=O)N[C@H]1CCOC[C@@H]1COc1ccc(-n2cc(Cl)cn2)cc1 [compound A, N-[(3R,4S)-3-{[4-(4-chloro-1H-pyrazol-1-yl)phenoxy]methyl}tetrahydro-2H-pyran-4-yl]methanesulfonamide]",significant inhibition
2,"CCS(=O)(=O)N[C@H]1CCOC[C@@H]1COc1ccc(-n2cc(Cl)cn2)cc1F [compound B, N-[(3R,4S)-3-{[4-(4-chloro-1H-pyrazol-1-yl)-2-fluorophenoxy]methyl}tetrahydro-2H-pyran-4-yl]ethanesulfonamide]",significant inhibition

# Target: T1, AMPA receptor (human GluR1 flip/stargazin expressed in CHO-K1 cells) (Homo sapiens, UniProt P42261)
# T1 construct: expressed in transfected cells; host or cells: CHO-K1
# T1 sequence (P42261 19-906 isoform P42261-2 limits assumed): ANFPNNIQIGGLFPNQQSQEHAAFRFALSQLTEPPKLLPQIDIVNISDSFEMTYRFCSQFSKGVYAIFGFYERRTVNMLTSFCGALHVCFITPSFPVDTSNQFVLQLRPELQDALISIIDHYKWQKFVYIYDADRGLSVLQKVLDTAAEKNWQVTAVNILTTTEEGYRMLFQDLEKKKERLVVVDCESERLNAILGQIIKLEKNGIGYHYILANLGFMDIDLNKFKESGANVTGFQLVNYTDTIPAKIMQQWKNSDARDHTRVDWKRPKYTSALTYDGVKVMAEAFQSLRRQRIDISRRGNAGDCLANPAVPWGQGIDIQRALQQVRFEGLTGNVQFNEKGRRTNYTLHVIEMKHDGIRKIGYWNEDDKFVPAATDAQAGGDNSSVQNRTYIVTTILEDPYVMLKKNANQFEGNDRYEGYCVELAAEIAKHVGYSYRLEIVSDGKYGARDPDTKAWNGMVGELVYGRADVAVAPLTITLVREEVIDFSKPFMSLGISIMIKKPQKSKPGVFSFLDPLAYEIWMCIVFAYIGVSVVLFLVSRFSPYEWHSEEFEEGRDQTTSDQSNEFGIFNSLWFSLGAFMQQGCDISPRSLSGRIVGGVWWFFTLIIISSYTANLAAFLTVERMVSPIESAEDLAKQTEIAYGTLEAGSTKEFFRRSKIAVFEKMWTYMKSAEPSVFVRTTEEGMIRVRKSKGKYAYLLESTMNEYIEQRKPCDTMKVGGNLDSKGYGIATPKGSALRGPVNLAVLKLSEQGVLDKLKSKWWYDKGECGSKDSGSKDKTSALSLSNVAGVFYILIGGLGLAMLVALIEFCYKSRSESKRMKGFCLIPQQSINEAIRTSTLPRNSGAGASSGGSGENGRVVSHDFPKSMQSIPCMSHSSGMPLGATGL
# T1 sequence (Q9Y698 whole entry partner): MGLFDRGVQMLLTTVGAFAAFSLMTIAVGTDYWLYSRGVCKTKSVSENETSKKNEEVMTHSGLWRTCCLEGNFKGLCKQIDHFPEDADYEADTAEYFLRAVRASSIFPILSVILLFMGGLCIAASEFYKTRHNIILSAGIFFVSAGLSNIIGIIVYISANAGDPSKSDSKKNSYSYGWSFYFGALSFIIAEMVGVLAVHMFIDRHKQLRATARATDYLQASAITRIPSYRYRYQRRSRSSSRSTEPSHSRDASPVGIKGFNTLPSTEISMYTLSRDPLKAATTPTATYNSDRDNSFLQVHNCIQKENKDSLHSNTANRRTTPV
# Assay: AMPA receptor function enhancing activity using calcium influx as index
# Assay type: cell-based
# Conditions: change in fluorescence level in 3 min, 100% = 3 mM glutamic acid + 300 μM cyclothiazide, 0% = 3 mM glutamic acid only
# Outline: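 CHO-K1 cells co-expressing human GluR1 flip and stargazin, Calcium 4 dye with 1.25 mM probenecid; compound added with glutamate (3 mM final), fluorescence change over 3 min. Activity (%) scaled between 3 mM glutamate alone (0%) and glutamate plus 300 μM cyclothiazide (100%).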
row,SMILES,activity (%)
1,"O=S(=O)(N[C@H]1CCCO[C@@H]1COc1ccc(-c2ccc(F)cn2)cc1)C1CC1 [Example 282, 1,5-anhydro-4-[(cyclopropylsulfonyl)amino]-2,3,4-trideoxy-6-β-[4-(5-fluoropyridin-2-yl)phenyl]-D-erythro-hexitol]",96
2,"CS(=O)(=O)N[C@H]1COCC[C@@H]1COc1ccc(-c2ncc(F)cn2)cc1 [Example 283, N-[(3R,4S)-4-{[4-(5-fluoropyrimidin-2-yl)phenoxy]methyl}tetrahydro-2H-pyran-3-yl]methanesulfonamide]",98
3,"O=S(=O)(N[C@H]1CCOC[C@@H]1COc1ccc(-c2ncc(Cl)s2)cc1)C1CC1 [Example 312, N-[(3R,4S)-3-{[4-(5-chloro-1,3-thiazol-2-yl)phenoxy]methyl}tetrahydro-2H-pyran-4-yl]cyclopropanesulfonamide]",91
4,"CCS(=O)(=O)N[C@H]1CCCO[C@@H]1COc1ccc(-c2ncc(F)cn2)cc1 [Example 399, 1,5-anhydro-2,3,4-trideoxy-4-[(ethylsulfonyl)amino]-6-O-[4-(5-fluoropyrimidin-2-yl)phenyl]-D-erythro-hexitol]",94
5,"CCS(=O)(=O)N[C@H]1CCC(F)(F)C[C@@H]1COc1ccc(N2CCCC2=O)cc1 [Example 482, N-[(1S,2S)-4,4-difluoro-2-{[4-(2-oxopyrrolidin-1-yl)phenoxy]methyl}cyclohexyl] ethanesulfonamide]",99
6,"Cn1cccc(-c2ccc(OC[C@H]3CSCC[C@@H]3NS(C)(=O)=O)cc2)c1=O [Example 518, N-((3S,4S)-3-((4-(1-methyl-2-oxo-1,2-dihydropyridin-3-yl)phenoxy)methyl)tetrahydro-2H-thiopyran-4-yl)methanesulfonamide]",95
7,"CS(=O)(=O)N[C@H]1CCSC[C@@H]1COc1ccc(C2CCOCC2)cc1 [Example 519, N-((3S,4S)-3-((4-(tetrahydro-2H-pyran-4-yl)phenoxy)methyl)tetrahydro-2H-thiopyran-4-yl)methanesulfonamide]",88
8,"CCS(=O)(=O)N[C@H]1CCSC[C@@H]1COc1ccc(C2CCOCC2)cc1 [Example 529, N-((3S,4S)-3-((4-(tetrahydro-2H-pyran-4-yl)phenoxy)methyl)tetrahydro-2H-thiopyran-4-yl)ethanesulfonamide]",89

# Further lines, results first:
row,activity (%),SMILES
1,92,"CS(=O)(=O)N[C@H]1COCC[C@@H]1COc1ccc(-c2ncc(Cl)cn2)cc1 [Example 284, N-[(3R,4S)-4-{[4-(5-chloropyrimidin-2-yl)phenoxy]methyl}tetrahydro-2H-pyran-3-yl]methanesulfonamide]"
2,95,"CCS(=O)(=O)N[C@H]1CCOC[C@@H]1COc1ccc(-c2ccc(C#N)cn2)cc1 [Example 297, N-[(3R,4S)-3-{[4-(5-cyanopyridin-2-yl)phenoxy]methyl}tetrahydro-2H-pyran-4-yl]ethanesulfonamide]"
3,60,"O=S(=O)(N[C@H]1COCC[C@@H]1COc1ccc(-c2ncc(Cl)cc2F)cc1)C1CC1 [Example 383, N-[(3R,4S)-4-{[4-(5-chloro-3-fluoropyridin-2-yl)phenoxy]methyl}tetrahydro-2H-pyran-3-yl]cyclopropanesulfonamide]"
4,96,"CS(=O)(=O)N[C@H]1CCOC[C@@H]1COc1ccc(-n2cccn2)c(F)c1F [Example 425, N-[(3R,4S)-3-{[2,3-difluoro-4-(1H-pyrazol-1-yl)phenoxy]methyl}tetrahydro-2H-pyran-4-yl]methanesulfonamide hydrochloride]"
5,89,"CCS(=O)(=O)N[C@H]1CCOC[C@@H]1COc1ccc(-n2cc(Cl)cn2)cc1F [Example 454, N-[(3R,4S)-3-{[4-(4-chloro-1H-pyrazol-1-yl)-2-fluorophenoxy]methyl}tetrahydro-2H-pyran-4-yl]ethanesulfonamide]"
6,95,"CCS(=O)(=O)N[C@H]1CCSC[C@@H]1COc1ccc(-n2cc(C#N)cn2)cc1 [Example 522, N-((3S,4S)-3-((4-(4-cyano-1H-pyrazol-1-yl)phenoxy)methyl)tetrahydro-2H-thiopyran-4-yl)ethanesulfonamide]"

# Test system: methamphetamine (MAP)-induced hyperlocomotion
# Assay: methamphetamine (MAP)-induced hyperlocomotion
# Assay type: in vivo
# Conditions: FIG. 1
row,SMILES,inhibition of methamphetamine (MAP)-induced hyperlocomotion
1,"CS(=O)(=O)N[C@H]1CCOC[C@@H]1COc1ccc(-n2cc(Cl)cn2)cc1 [compound A, N-[(3R,4S)-3-{[4-(4-chloro-1H-pyrazol-1-yl)phenoxy]methyl}tetrahydro-2H-pyran-4-yl]methanesulfonamide]",inhibition
2,"CCS(=O)(=O)N[C@H]1CCOC[C@@H]1COc1ccc(-n2cc(Cl)cn2)cc1F [compound B, N-[(3R,4S)-3-{[4-(4-chloro-1H-pyrazol-1-yl)-2-fluorophenoxy]methyl}tetrahydro-2H-pyran-4-yl]ethanesulfonamide]",inhibition
